Assay [1] deals with SH-SY5Y cells treated with Aβ42 oligomers. In words: Anti-Aβ42 neurotoxicity assay. In kind it is cell-based, human. As to the method:
Human neuroblastoma SH-SY5Y cell line (Sigma-Aldrich, Saint Louis, Mo.) was cultured in DMEM/F12 (v/v 1:1) media supplemented with 2 mM glutamine, 10% heat-inactivated fetal bovine serum (FBS) and 1% antibiotics including penicillin and streptomycin. After reaching 70-80% confluence, cells were then subcultured on poly-L-lysine plates with 10 μM retinoic acid in a reduced serum media (1% FBS) to promote neuronal maturation and differentiation as described (Agholme, et al. (2010) J. Alzheimer's Dis. 20: 1069-1082). Cell cultures were incubated at 37° C. in a fully humidified atmosphere containing 5% CO2.
The toxic oligomers of Aβ42 were prepared as described (Liang, et al. (2016) ACS Chem. Neurosci. 7:912-923). Briefly, lyophilized Aβ42 peptide was dissolved in hexafluoroisopropanol, dried under vacuum, and stored at −20° C. Immediately prior to use, the peptide residue was reconstituted in DMEM/F12 media to make a stock solution at 0.1 mM and incubated at 4° C. for 24 hours to form diffusible oligomers. Aβ42 oligomers at a final concentration of 10 μM were assayed for cell viability.
SH-SY5Y cells were seeded at a density of 3×10^5 cells/mL in a 96-well plate in DMEM/F12 media containing 10 μM retinoic acid and 1% FBS to suppress cell proliferation. Cells were incubated under regular culture conditions for attachment. After 24 hours of plating, the cells were pretreated with different concentrations of test samples or the 0.2% DMSO as a vehicle control for 1 hour and then co-incubated with 10 μM Aβ42 for 72 hours. After the experimental treatment, the cells were subject to a […]® 96 AQueous One Solution Cell Proliferation […] Assay according to the manufacturer's instruction. […] Each data point was collected in triplicate of two independent experiments.

In assay [2] the target is GSK-3β (Homo sapiens, UniProt P49841). In words: Kinase luminescent assay (ADP-Glo), GSK-3β inhibition. In kind it is biochemical. The following applies: 25 μM ATP, 1 hour, room temperature; mean of quadruplicate of two experiments; read-out: IC50 against GSK-3β. As to the method:
Kinase Luminescent Assay.
Kinase inhibition was assessed with the ADP-Glo Kinase Assay. […] The reaction mixture was incubated for 1 hour at room temperature followed by the addition of the ADP-Glo′ reagents according to the manufacturer's protocol. The kinase inhibitor staurosporine was used at 1 μM as a reference control. Each data point was collected in quadruplicate of two independent experiments.
In general terms: ADP-Glo first removes unused ATP, then detects ADP through luciferase.

Assay [3] has as its system amyloid plaques. In words: Thioflavin-S staining of brain plaques. Type of assay: in vivo, mouse. More on the design: dose or concentration left out as unconfirmed. The following applies: more pronounced with increasing dose. As to the method: The backgrounds of all mice (APP/PS1 dual transgenic mice and wild-type mice with littermates) were C57/B6. Transgenic mice were randomly divided into three groups (n=20 for each group), and wild-type mice were used as controls (n=20). […] Throughout the study-period, animals were housed in a controlled environment (temperature, 22° C.; humidity, 50-60%, 12-hour light/12-hour dark schedules), with free access to rodent chow and water. After a Morris water maze test, mice were perfused with cold phosphate-buffered saline (PBS), brain tissues were dissected and kept frozen at −80° C. until further analysis. […] The brain tissue was then embedded in an OCT agent and placed at −80° C. for storage until use. […] The Thio-S staining procedure was according to known methods (Maiti, et al. (2016) Histochem. Cell Biol. 146(5):609-625). Briefly, Thio-S solution at 0.1% (w/v) was prepared by dissolving 0.1 gram of Thioflavin-S(Sigma-Aldrich) in 50% ethanol (v/v). The tissue sections were washed three times with PBS for five minutes each time. The sections were incubated with 0.1% Thio-S for 10 minutes, dipping them three times in 50% ethanol (v/v) for 10 minutes each time, and finally washing once in PBS, before being mounted, as described above. The sections were visualized using a fluorescence microscope (Leica, Germany), with excitation/emission filters (480/550 nm).

Assay [4] deals with IgG anti-Aβ42. In words: Anti-Aβ immunoglobulin (IgG) in serum by ELISA. Type of assay: in vivo, mouse. The following applies: APP/PS1 mice, 60-day intragastric, vs model group. As to the method:
The backgrounds of all mice (APP/PS1 dual transgenic mice and wild-type mice with littermates) were C57/B6. Transgenic mice were randomly divided into three groups (n=20 for each group), and wild-type mice were used as controls (n=20). The control group and one group of transgenic mice (model group) were given sterilized ultrapure water, and the other two groups of transgenic mice received low- and high-dose Isoorientin (20 and 50 mg/kg, respectively) via intragastric administration for 60 days. Throughout the study-period, animals were housed in a controlled environment (temperature, 22° C.; humidity, 50-60%, 12-hour light/12-hour dark schedules), with free access to rodent chow and water. After a Morris water maze test, mice were perfused with cold phosphate-buffered saline (PBS), brain tissues were dissected and kept frozen at −80° C. until further analysis. […] Blood was collected from mice. […] The anti-Aβ immunoglobulin (IgG) was measured using an enzyme-linked immunosorbent assay (ELISA) kit according to the manufacturer's protocol (see also, Song, et al. (2017) PLoS One 12(1):e0169509). […] The optical densities at 450 nm were analyzed using a microreader (TECAN, Switzerland) and linear regression was confirmed by ab126468, polyclonal anti-amyloid fibril antibody, as positive internal control. […]

“Also recorded” adds a separate entry of the source.

Sequence of GSK-3β (P49841 whole entry): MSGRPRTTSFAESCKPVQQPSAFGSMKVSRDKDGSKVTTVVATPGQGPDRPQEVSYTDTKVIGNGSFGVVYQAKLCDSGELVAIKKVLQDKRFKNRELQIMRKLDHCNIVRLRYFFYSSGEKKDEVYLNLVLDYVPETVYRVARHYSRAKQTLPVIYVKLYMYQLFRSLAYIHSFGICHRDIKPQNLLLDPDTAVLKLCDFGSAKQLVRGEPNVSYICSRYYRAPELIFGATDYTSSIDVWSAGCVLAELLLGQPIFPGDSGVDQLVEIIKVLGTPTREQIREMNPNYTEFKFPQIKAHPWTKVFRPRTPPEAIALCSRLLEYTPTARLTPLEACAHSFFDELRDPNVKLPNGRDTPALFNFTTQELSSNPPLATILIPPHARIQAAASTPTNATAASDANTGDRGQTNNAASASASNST

As to `O=c1cc(-c2ccc(O)c(O)c2)oc2cc(O)c([C@@H]3O[C@H](CO)[C@@H](O)[C@H](O)[C@H]3O)c(O)c12` [Compound 1, isoorientin], the EC50 in assay [1] (Homo sapiens, SH-SY5Y, 1 hour pretreatment, 10 μM Aβ42, 72 hours, read-out: neuroprotective potency EC50) was 47 µM. Moreover, in assay [1] (morphological observations), the “effective dose, morphological protection from Aβ42 intoxication” value amounted to 200 μM. The IC50 in assay [2] was found to be 185 µM. The thioflavin-S-positive plaques entry in assay [3] is recorded as “reduced”. For the same compound, the “IgG anti-Aβ42 in serum” value in assay [4] was “decreased; also recorded: reduced”.

By EC50 is commonly meant the midpoint of the concentration-response curve. The term IC50 denotes the concentration needed to halve the response being measured.

(Values after patent publication US11254700B2, “GSK-3β inhibitors and use thereof in methods of treatment” (UNIVERSITY OF HAWAII, priority 2017, dated 2022).)
